Read-outs that look alike come from different tables or passages of the source.
Experiments:
[1] = molecular target: T1, 17β-HSD2 (Homo sapiens, UniProt P37059); test: 17β-HSD Type II activity in MDA-MB-231 cells (E2→E1); assay type: cell-based
T1 construct: was measured in intact cell monolayers of T47D and MDA-MB-231 breast cancer cells respectively; endogenous in cells; host or cells: MDA-MB-231 human breast cancer cells
T1 sequence (P37059 1-387): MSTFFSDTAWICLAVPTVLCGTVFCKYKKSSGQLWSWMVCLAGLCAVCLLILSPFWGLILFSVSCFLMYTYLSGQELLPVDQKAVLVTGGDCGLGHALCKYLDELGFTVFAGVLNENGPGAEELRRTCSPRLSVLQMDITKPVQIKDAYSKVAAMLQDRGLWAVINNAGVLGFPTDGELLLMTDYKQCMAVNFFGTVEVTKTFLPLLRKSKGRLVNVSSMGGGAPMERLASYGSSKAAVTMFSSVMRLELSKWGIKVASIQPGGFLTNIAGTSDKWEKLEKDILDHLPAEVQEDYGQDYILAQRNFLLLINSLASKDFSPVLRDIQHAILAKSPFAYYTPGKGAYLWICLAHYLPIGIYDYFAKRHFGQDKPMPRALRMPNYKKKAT

[2] = molecular target: T2, 17β-HSD1 (Homo sapiens, UniProt P14061); test: 17β-HSD Type I activity in T-47D cells (E1→E2); assay type: cell-based; details: for inhibition at 10 µM: T47D
T2 construct: was measured in intact cell monolayers of T47D and MDA-MB-231 breast cancer cells respectively; endogenous in cells; host or cells: T-47D human breast cancer cells
T2 sequence (P14061 1-328): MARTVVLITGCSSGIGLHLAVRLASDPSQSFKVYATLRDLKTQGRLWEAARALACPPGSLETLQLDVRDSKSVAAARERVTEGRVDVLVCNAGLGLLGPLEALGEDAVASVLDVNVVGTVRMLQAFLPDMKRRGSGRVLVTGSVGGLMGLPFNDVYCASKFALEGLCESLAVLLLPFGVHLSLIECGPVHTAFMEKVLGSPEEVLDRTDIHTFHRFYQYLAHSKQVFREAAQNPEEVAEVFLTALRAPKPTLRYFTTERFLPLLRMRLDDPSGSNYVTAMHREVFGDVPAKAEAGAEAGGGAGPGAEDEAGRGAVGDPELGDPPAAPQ

[3] = 10 μM, MDA-MB-231 cells, E2→E1, read-out: % inhibition of 17β-HSD2 @ 10 μM
[4] = 10 μM, T-47D cells, E1→E2, read-out: % inhibition of 17β-HSD1 @ 10 μM
[5] = T-47D cells, E1→E2, read-out: IC50 (17β-HSD1)
[6] = MDA-MB-231, read-out: % inhibition of 17β-HSD2 @ 10 μM
[7] = read-out: % inhibition of 17β-HSD1 @ 10 μM, 10 μM, T-47D cells, E1→E2

Compound | inhibition at 10 µM [1, 3] | inhibition at 10 µM [2, 4] | IC50 [2] | IC50 [2, 5] | inhibition at 10 µM [1, 6] | inhibition at 10 µM [2, 7]
COC(=O)C1CC2C3CCc4cc(O)ccc4C3CC[C@]2(C)[C@H]1O (stereo partly drawn) [compound 572] | 2% | 63% | – | – | – | –
CCOC(=O)CC1CC2C3CCc4cc(O)ccc4C3CC[C@]2(C)C1=O (stereo partly drawn) [compound 573] | 18% | 97% | 300 nM | – | – | –
CCOC(=O)CC1CC2C3CCc4cc(O)ccc4C3CC[C@]2(C)[C@H]1O (stereo partly drawn) [compound 574] | 18% | 67% | – | – | – | –
CN(C)c1ccc(CC2CC3C4CCc5cc(O)ccc5C4CC[C@]3(C)[C@H]2O)cc1 (stereo partly drawn) [compound 594, 16-(4-Dimethylamino-benzyl)-13-methyl-7,8,9,11,12,13,14,15,16,17-decahydro-6H-cyclopenta[a]phenanthrene-3,17-diol] | 25% | 41% | – | – | – | –
C[C@]12CCC3c4ccc(O)cc4CCC3C1CC(CC(=O)O)[C@@H]2O (stereo partly drawn) [compound 603] | 0% | 58% | – | – | – | –
C[C@]12CCC3C4CC=C(O)C=C4CCC3C1CC(CC(=O)O)C2=O (stereo partly drawn) [compound 604] | -5% | 13% | – | – | – | –
C[C@]12CCC3c4ccc(O)cc4CCC3C1CC(C(=O)O)C2=O (stereo partly drawn) [compound 610] | 1% | 95% | – | 940 nM | – | –
C[C@]12CCC3c4ccc(O)cc4CCC3C1CC(C(=O)O)[C@@H]2O (stereo partly drawn) [compound 611] | 4% | 39% | – | – | – | –
C[C@]12CCC3c4ccc(O)cc4CCC3C1CC(CO)[C@@H]2O (stereo partly drawn) [compound 612] | 17% | 86% | – | – | – | –
CC(C)/C=C1\CC2C3CCc4cc(O)ccc4C3CC[C@]2(C)[C@H]1O (stereo partly drawn) [compound 614] | 7% | 68% | – | – | – | –
C[C@]12CCC3c4ccc(O)cc4CCC3C1Cc1cccnc12 (stereo partly drawn) [compound 663] | 34% | 78% | – | – | – | –
CCOCC1CC2C3CCc4cc(O)ccc4C3CC[C@]2(C)C1=O (stereo partly drawn) [compound 664] | 19% | 92% | 320 nM | – | – | –
CCC(O)C1CC2C3CCc4cc(O)ccc4C3CC[C@]2(C)C1=O (stereo partly drawn) [compound 665] | -18% | 80% | – | – | – | –
C[C@]12CCC3c4ccc(O)cc4CCC3C1CC(CC(=O)NCc1ccco1)[C@@H]2O (stereo partly drawn) [compound 667] | 14% | 35% | – | – | – | –
C[C@]12CCC3c4ccc(O)cc4CCC3C1CC(CC(=O)NCC1CCCO1)[C@@H]2O (stereo partly drawn) [compound 668] | 25% | 63% | – | – | – | –
C[C@]12CCC3c4ccc(O)cc4CCC3C1CC(CC(=O)NCc1ccccn1)C2=O (stereo partly drawn) [compound 669] | – | – | – | – | 7% | 82%
C[C@]12CCC3c4ccc(O)cc4CCC3C1CC(CC(=O)NCc1cccnc1)C2=O (stereo partly drawn) [compound 670] | 26% | 95% | – | 33 nM | – | –
C[C@]12CCC3c4ccc(O)cc4CCC3C1CC(CC(=O)NCC1CCCO1)C2=O (stereo partly drawn) [compound 671] | 21% | 91% | – | 380 nM | – | –
C[C@]12CCC3c4ccc(O)cc4CCC3C1CC(CC(=O)NCc1ccco1)C2=O (stereo partly drawn) [compound 672] | – | – | – | – | 3% | 85%
C[C@]12CCC3c4ccc(O)cc4CCC3C1CC(C(=O)NCc1ccco1)[C@@H]2O (stereo partly drawn) [compound 679] | -9% | 87% | – | – | – | –
CN(C)CCCNC(=O)CC1CC2C3CCc4cc(O)ccc4C3CC[C@]2(C)C1=O (stereo partly drawn) [compound 688] | 13% | 36% | – | – | – | –
COCCNC(=O)CC1CC2C3CCc4cc(O)ccc4C3CC[C@]2(C)C1=O (stereo partly drawn) [compound 689] | 8% | 53% | – | – | – | –
C[C@H](NC(=O)CC1CC2C3CCc4cc(O)ccc4C3CC[C@]2(C)C1=O)c1ccccc1 (stereo partly drawn) [compound 690] | 10% | 83% | – | – | – | –
C[C@]12CCC3c4ccc(O)cc4CCC3C1CC(CC(=O)NCCc1ccccn1)C2=O (stereo partly drawn) [compound 691] | 14% | 58% | – | – | – | –
COc1cc(/C=C2\CC3C4CCc5cc(OS(N)(=O)=O)ccc5C4CC[C@]3(C)C2=O)cc(OC)c1OC (stereo partly drawn) [compound 692] | 17% | 4% | – | – | – | –

Compound | inhibition at 10 µM [1, 3] | inhibition at 10 µM [2, 4] | IC50 [2] | IC50 [2, 5] | inhibition at 10 µM [1, 6] | inhibition at 10 µM [2, 7]
COc1cc(/C=C2\CC3C4CCc5cc(OS(N)(=O)=O)ccc5C4CC[C@]3(C)[C@H]2O)cc(OC)c1OC (stereo partly drawn) [compound 693] | 10% | 13% | – | – | – | –
C[C@]12CCC3c4ccc(O)cc4C(=O)CC3C1Cc1c[nH]nc12 (stereo partly drawn) [compound 737, 2-Hydroxy-6a-methyl-5,6,6a,8,10,10a,10b,11-octahydro-4bH-7,8-diazo-pentaleno[2,1-a]phenanthren-12-one] | -9% | 96% | – | 460 nM | – | –
CCN(C)C(=O)CC1CC2C3CCc4cc(O)ccc4C3CC[C@]2(C)C1=O (stereo partly drawn) [compound 741] | 5% | 79% | – | – | – | –
CCN(CC)C(=O)CC1CC2C3CCc4cc(O)ccc4C3CC[C@]2(C)C1=O (stereo partly drawn) [compound 742] | 2% | 82% | – | – | – | –
CC(C)NC(=O)CC1CC2C3CCc4cc(O)ccc4C3CC[C@]2(C)C1=O (stereo partly drawn) [compound 743] | 6% | 75% | – | – | – | –
CCNC(=O)CC1CC2C3CCc4cc(O)ccc4C3CC[C@]2(C)C1=O (stereo partly drawn) [compound 744] | 2% | 84% | – | – | – | –
CNC(=O)CC1CC2C3CCc4cc(O)ccc4C3CC[C@]2(C)C1=O (stereo partly drawn) [compound 745] | 3.5% | 90% | – | 1500 nM | – | –
C[C@]12CCC3c4ccc(O)cc4CCC3C1CC(CC(=O)Nc1nccs1)C2=O (stereo partly drawn) [compound 746] | 16% | 30% | – | – | – | –
CC(C)(C)/C=C1\CC2C3CCc4cc(O)ccc4C3CC[C@]2(C)C1=O (stereo partly drawn) [compound 748] | 31% | 82% | – | – | – | –
CCO/C=C1/CC2C3CC(=O)c4cc(O)ccc4C3CC[C@]2(C)C1=O (stereo partly drawn) [compound 749] | 8% | 85% | – | – | – | –
CCN(C)C(=O)CC1CC2C3CCc4cc(O)ccc4C3CC[C@]2(C)[C@H]1O (stereo partly drawn) [compound 771] | 16% | 78% | – | – | – | –
CCN(CC)C(=O)CC1CC2C3CCc4cc(O)ccc4C3CC[C@]2(C)[C@H]1O (stereo partly drawn) [compound 772] | 14% | 79% | – | – | – | –
CC(C)NC(=O)CC1CC2C3CCc4cc(O)ccc4C3CC[C@]2(C)[C@H]1O (stereo partly drawn) [compound 773] | 11% | 67% | – | – | – | –
CCNC(=O)CC1CC2C3CCc4cc(O)ccc4C3CC[C@]2(C)[C@H]1O (stereo partly drawn) [compound 774] | 13% | 76% | – | – | – | –
CNC(=O)CC1CC2C3CCc4cc(O)ccc4C3CC[C@]2(C)[C@H]1O (stereo partly drawn) [compound 775] | 11% | 63% | – | – | – | –
C[C@]12CCC3c4ccc(O)cc4CCC3C1CC(C(=O)NCC1CCCO1)[C@@H]2O (stereo partly drawn) [compound 779] | 11% | 82% | – | – | – | –
COC(=O)C1(CN2C(=O)c3ccccc3C2=O)CC2C3CCc4cc(O)ccc4C3CC[C@]2(C)C1=O (stereo partly drawn) [compound 780] | 17% | 71% | – | – | – | –
CCOC(=O)c1[nH]nc2c1CC1C3CCc4cc(O)ccc4C3CC[C@]21C (stereo partly drawn) [compound 782] | 7% | 94% | – | 1850 nM | – | –
C[C@]12CCC3c4ccc(O)cc4CCC3C1Cc1c2n[nH]c1C(=O)O (stereo partly drawn) [compound 783] | -6% | 32% | – | – | – | –
C[C@]12CCC3c4ccc(O)cc4C(=O)CC3C1C/C(=C/O)C2=O (stereo partly drawn) [compound 784] | -7% | 97% | – | 700 nM | – | –
Cn1cc2c(n1)[C@@]1(C)CCC3c4ccc(O)cc4CCC3C1C2 (stereo partly drawn) [compound 785] | – | – | – | 2750 nM | 24% | 94%
Cn1ncc2c1[C@@]1(C)CCC3c4ccc(O)cc4CCC3C1C2 (stereo partly drawn) [compound 786] | – | – | – | – | 32% | 43%
C[C@]12CCC3c4ccc(O)cc4CCC3C1CC(C(=O)NCc1cccnc1)[C@@H]2O (stereo partly drawn) [compound 798] | -12% | 91% | 510 nM | – | – | –
CN1CCN(C(=O)C2CC3C4CCc5cc(O)ccc5C4CC[C@]3(C)[C@H]2O)CC1 (stereo partly drawn) [compound 799] | -16% | 74% | – | – | – | –
CCN(C)C(=O)C1CC2C3CCc4cc(O)ccc4C3CC[C@]2(C)[C@H]1O (stereo partly drawn) [compound 800] | -6% | 79% | – | – | – | –

From patent publication US8003783B2, “17B-hydroxysteroid dehydrogenase inhibitors” (Sterix Limited, priority 2004, dated 2011)
